Entries after “also recorded” stand apart in the source; their conditions may differ.
Experiments:
[1] = Minocycline HCl compatibility tests with excipients (colour change, HPLC assay); assay type: physicochemical; settings: for Compatibility with Minocycline HCL: Summary, compatibility tested after the storage for up to 3 weeks
Protocol: About 0.5 g foam or pre-foam formulation is dissolved with diluent (65% phosphate buffer: 35% Acetonitrile (ACN)) in a 25 mL volumetric flask. The sample is shaken […] on an inverted shaker stand for 10 min at room temperature. The resulting suspension is centrifuged for 5 minutes at 4000 rpm. The supernatant is separated by vacuum pump and filtered thereafter through a 0.45 μm PTFE+GL filter. The first few drops of the filtrate are discarded. The resultant clear solution layer is analyzed by HPLC using columnRP-8. The content of MCH is calculated against an MCH standard 0.4 mg/mL (concentration). The content of 4-epiminocycline is calculated against MCH standard 0.02 mg/mL (concentration).
Color is tested by visual observation and in particular by comparison to “Pantone® formula guide solid uncoated” colors. […] Minocycline changes color to orange/greenish with oxidation or complexation. These oxidized colors are not desirable. Colors such as 609U/608U/610U are indicative of degradation by the tetracycline antibiotic.
For convenience the excipients were divided into four different groups (I-IV).
Different compositions of hydrophilic and hydrophobic solvents containing minocycline HCl were prepared by weighing the antibiotic in a glass vial and shaking overnight with each solvent investigated (Group I and II).
Mixtures of Minocycline HCl with solid excipients like titanium dioxide, stearyl alcohol, myristyl alcohol etc were prepared by suspending Minocycline HCl in oil with stirring and then adding the solid ingredient as a powder with stirring at room temperature (Group III an IV).
Oxidation of minocycline after the storage at various temperatures was detected by color change. Assay for content of the active pharmaceutical ingredient (API) and degradation product (4-epiminocycline) was determined in some samples.
A series of experiments were performed to evaluate which mixture of components/ingredients were compatible or incompatible with minocycline. Each component or combinations of components were mixed with either 1.1% or 2.2% Minocycline HCl. The glass vials containing the formulations were wrapped in aluminum—and were subjected to a range of temperatures 25° C.; 30° C.; 40° C.; 50 C; for between one week to about 3 weeks. The best results are shown as “compatible no oxidation”.

[2] = Doxycycline Hyclate compatibility test with excipients; assay type: physicochemical; settings: for Visual inspection after the storage at 25° C.: stored at 25° C. for two weeks; for Visual inspection after the storage at 40° C.: stored at 40° C. for two weeks; for Visual inspection after the storage at 50° C.: stored at 50° C. for two weeks
Protocol: (§1) Different compositions of hydrophilic and hydrophobic solvents containing Doxycycline Hyclate (Set I and Set II) and Doxycycline Monohydrate (Set III) were prepared by weighing the antibiotic in a glass vial and shaking overnight with each solvent investigated.
Group II included Doxycycline Hyclate mixed with various vehicles with addition of antioxidants like alpha tocopherol, butylated hydroxytolyene (BHT), ascorbic acid.

[3] = Source text: In one or more embodiments of the present disclosure, the foamable composition includes a potent solvent, in addition to or in place of one of the hydrophobic solvents, polar solvents or emollients of the composition. A potent solvent is a solvent other than mineral oil that solubilizes a specific active agent substantially better than a hydrocarbon solvent such as mineral oil or petrolatum.
[4] = Doxycycline Monohydrate compatibility test with excipients; assay type: physicochemical; settings: for Compatibility with Doxycycline Monohydrate: Summary, compatibility tested after the storage for up to 3 weeks; for Compatibility with Doxycycline Monohydrate (text): as summarised in text, 40° and 50° C. for two weeks where stated; for Visual inspection after the storage at 25° C. / Visual inspection after the storage at 40° C. / Visual inspection after the storage at 50° C. / Visual inspection at T-0: Mixtures of 1.04% w/w of Doxycycline Monohydrate with the ingredient; for Visual inspection after the storage at 25° C.: stored at 25° C. for two weeks; for Visual inspection after the storage at 40° C.: stored at 40° C. for two weeks; for Visual inspection after the storage at 50° C.: stored at 50° C. for two weeks
Protocol: as §1, with “investigated. Mixtures of Doxycycline salts 1.04% w/w with solid excipients were prepared in a similar way as for Minocycline HCl.” for “investigated.”
A similar compatibility test was performed on another form of Doxycycline-Doxycycline Monohydrate. Table 17b and Table 18.

[5] = Summary, compatibility tested after the storage for up to 3 weeks
[6] = 40° C. and 50° C. for two weeks where stated
[7] = Group II, mixture with 1.1% of Minocycline HCl, 10 days at 40° C.
[8] = Group II, mixture with 1.1% of Minocycline HCl, T-0
[9] = Mixtures of 1.04% w/w of Doxycycline Hyclate with the ingredient

## CCCCCCCC/C=C\CCCCCCCCO [Oleyl alcohol]
[1]
  Compatibility with Minocycline HCL: Yes
[2]; [5]
  Compatibility with Doxycycline Hyclate: Yes

## Cc1ncc([N+](=O)[O-])n1CCO [Metronidazole]
[3]
  Solubility in dimethyl isosorbide: more than 1%
  Solubility in mineral oil: < 0.01%

## CCCCCCCCCCCCCCO [Myristyl alcohol]
[1]
  Compatibility with Minocycline HCL: Yes
[2]; [5]
  Compatibility with Doxycycline Hyclate: Yes

## CCCCC(=O)O[C@]1(C(=O)CO)[C@@H](C)C[C@H]2[C@@H]3CCC4=CC(=O)C=C[C@]4(C)[C@@]3(F)[C@@H](O)C[C@@]21C [Betamethasone valerate]
[3]
  Solubility in glycofurol: more than 1%
  Solubility in mineral oil: < 0.01%

## CCCCCCCCCCC(CO)CCCCCCCC (stereo not drawn) [Octyldodecanol]
[1]
  Compatibility with Minocycline HCl: full compatibility; also recorded: compatible
  Compatibility with Minocycline HCL: Yes
[4]
  Compatibility with Doxycycline Monohydrate: No
  Compatibility with Doxycycline Monohydrate (text): incompatibility
[2]; [6]
  Compatibility with Doxycycline Hyclate: incompatibility
[2]; [5]
  Compatibility with Doxycycline Hyclate: No

## CCO [Ethanol 95%]
[1]
  Compatibility with Minocycline HCl: changed their colour from yellow to orange
  Compatibility with Minocycline HCL: No
[1]; [7]
  4-epiminocycline Assay (% w/w), 10 days at 40° C.: 0.39 % w/w
  Minocycline Assay (% w/w), 10 days at 40° C.: 0.52 % w/w
[1]; [8]
  4-epiminocycline Assay (% w/w), T-0: 0.021 % w/w
  Minocycline Assay (% w/w), T-0: 0.97 % w/w
[4]
  Visual inspection after the storage at 25° C.: Brown solution
  Visual inspection after the storage at 40° C.: Brown solution
  Visual inspection after the storage at 50° C.: Black solution
  Compatibility with Doxycycline Monohydrate: No
  Compatibility with Doxycycline Monohydrate (text): changed their colour from yellow to orange
[4]; listed as ethanol 95%
  Compatibility with Doxycycline Monohydrate (text): oxidized
[2]; [6]
  Compatibility with Doxycycline Hyclate: stable
[2]; [5]
  Compatibility with Doxycycline Hyclate: Yes

## CCCCCCCCCCCCCCCCCCO [Stearyl alcohol]
[1]
  Compatibility with Minocycline HCL: Yes
[2]; [5]
  Compatibility with Doxycycline Hyclate: Yes

## CO[C@H]1CO[C@H]2[C@@H]1OC[C@H]2OC [Dimethyl Isosorbide]
[1]
  Compatibility with Minocycline HCL: No
[4]
  Visual inspection at T-0: yellow solution
  Visual inspection after the storage at 25° C.: orange solution
  Visual inspection after the storage at 40° C.: orange orange
  Visual inspection after the storage at 50° C.: Orange solution
  Compatibility with Doxycycline Monohydrate: No
[2]; Mixtures of 1.04% w/w of Doxycycline Hyclate with the ingredient, T-0 (two-week study)
  Visual inspection at T-0: yellow solution
[2]; [9]
  Visual inspection after the storage at 25° C.: Yellow solution
  Visual inspection after the storage at 40° C.: Brownish orange
  Visual inspection after the storage at 50° C.: Orange solution
[2]; [5]
  Compatibility with Doxycycline Hyclate: No

## Sorbitan Monolaurate
[1]
  Compatibility with Minocycline HCL: No
[4]
  Visual inspection at T-0: Brown mixture
  Visual inspection after the storage at 25° C.: orange solution
  Visual inspection after the storage at 40° C.: Brown solution
  Visual inspection after the storage at 50° C.: brown solution
  Compatibility with Doxycycline Monohydrate: No
[2]; [9]
  Visual inspection after the storage at 25° C.: Brown solution
  Visual inspection after the storage at 40° C.: Brown solution
  Visual inspection after the storage at 50° C.: Black solution
[2]; [5]
  Compatibility with Doxycycline Hyclate: No

## C[Si]1(C)O[Si](C)(C)O[Si](C)(C)O[Si](C)(C)O[Si](C)(C)O1 [Cyclomethicone 5 NF]
[1]
  Compatibility with Minocycline HCL: Yes
[4]
  Compatibility with Doxycycline Monohydrate: Yes
[2]; [5]
  Compatibility with Doxycycline Hyclate: Yes

## Sorbitan Monostearate
[1]
  Compatibility with Minocycline HCL: Yes
[2]; [5]
  Compatibility with Doxycycline Hyclate: Yes

## CC(C)CCCCCCCCCCCCCCC(=O)O [Isostearic Acid]
[1]
  Compatibility with Minocycline HCL: No
[2]; [5]
  Compatibility with Doxycycline Hyclate: Yes

## OCCCCO [Butylene glycol]
[1]
  Compatibility with Minocycline HCL: No
[4]
  Visual inspection after the storage at 25° C.: Orange solution
  Visual inspection after the storage at 50° C.: black solution
  Compatibility with Doxycycline Monohydrate: No
[2]; [5]
  Compatibility with Doxycycline Hyclate: No

## CC(C)OC(=O)CCCCC(=O)OC(C)C [Diisopropyl adipate]
[1]
  Compatibility with Minocycline HCL: Yes
[4]
  Compatibility with Doxycycline Monohydrate: No
[2]; [5]
  Compatibility with Doxycycline Hyclate: Yes

Source: US8343945B2, “Carriers, formulations, methods for formulating unstable active agents for external application and uses thereof” (Foamix Ltd., priority 2007, dated 2013)
